Results from patent US6864068B2, “Antifungal proteins” (Syngenta Limited, priority 1995, dated 2005).

System: F culmorum
Test: Specific antifungal activity of Rs-AFP2 isoforms in SMF− and SMF+ media
Format: cell-based
Parameters: IC50 SMF− / IC50 SMF+: unit not given here
Conditions: for RELATIVE SPECIFIC ACTIVITY (%) IN MEDIUM SMF+ / RELATIVE SPECIFIC ACTIVITY (%) IN MEDIUM SMF−: 1/IC50 of mutant divided by that of yRs-AFP2 x 100, 48 hour incubation, preliminary tests; for RELATIVE SPECIFIC ACTIVITY (%) IN MEDIUM SMF+: SMF with 1 mM CaCl2 and 50 mM KCl; for RELATIVE SPECIFIC ACTIVITY (%) IN MEDIUM SMF−: low ionic strength medium; for IC50 SMF+ / IC50 SMF−: 72 hours growth, triplicate; for IC50 SMF+: high salt medium (1 mM CaCl2, 50 mM KCl); for IC50 SMF− / effect of substitution on antifungal activity in SMF−, in words: low salt medium; for effect of substitution on antifungal activity in SMF+, in words / effect of substitution on antifungal activity in SMF−, in words: Table 2 tests; for effect of substitution on antifungal activity in SMF+, in words: high salt medium; for relative specific antifungal activity (1/IC50), FIG. 6, in words: medium SMF+, Rs-AFP2 set at 100
Protocol: For each isoform, two independent purifications were carried out and the antifungal activity was determined in duplicate using F culmorum as a test fungus in two different media: a low ionic strength medium called SMF-(Terras et al, 1992, J Biol Chem, 267:15301-15309) and the same medium supplemented with 1 mM CaCl2 and 50 mM KCl called SMF+. The presence of salts in the test medium, especially salts with divalent cations, reduces the specific activity of Rs-AFP2. Seed-purified as well as yeast-expressed wild type Rs-AFP2 served as a control in the assays.
The relative specific activity is expressed as the specific activity of the mutant divided by the specific activity of yRs-AFP2 and multiplied by 100. […] The specific activity was measured in medium SMF−and SMF+.
Deviations are given as standard error of the mean (sem) based on the triplicate experiments. In SMF−, the medium without added salts, most of the derivatives show no decrease or only a minor decrease in antifungal activity, while in SMF+, the medium with added salts, there is a significant decrease in antifungal activity for several Rs-AFP2 isoforms.

Substance: yRs-AFP2/I26R (QKLCQRPSGTWSGVCGNNNACKNQCRRLEKARHGSCNYVFPAHKCICYFPC; listed as Raphanus sativus)
- RELATIVE SPECIFIC ACTIVITY (%) IN MEDIUM SMF+: 82%
- RELATIVE SPECIFIC ACTIVITY (%) IN MEDIUM SMF−: 76%
- IC50 SMF+: 9.6
- IC50 SMF−: 7.2

Substance: yRs-AFP2/S12R (QKLCQRPSGTWRGVCGNNNACKNQCIRLEKARHGSCNYVFPAHKCICYFPC; listed as Raphanus sativus)
- RELATIVE SPECIFIC ACTIVITY (%) IN MEDIUM SMF+: 31%
- RELATIVE SPECIFIC ACTIVITY (%) IN MEDIUM SMF−: 67%
- IC50 SMF+: 20.0
- IC50 SMF−: 3.5

Substance: yRs-AFP2/N37R (QKLCQRPSGTWSGVCGNNNACKNQCIRLEKARHGSCRYVFPAHKCICYFPC; listed as Raphanus sativus)
- RELATIVE SPECIFIC ACTIVITY (%) IN MEDIUM SMF+: 80%
- RELATIVE SPECIFIC ACTIVITY (%) IN MEDIUM SMF−: 100%
- IC50 SMF+: 7.0
- IC50 SMF−: 2.8

Substance: yRs-AFP2/Q5M: yeast-expressed Rs-AFP2 isoform, position 5 glutamine to methionine (QKLCMRPSGTWSGVCGNNNACKNQCIRLEKARHGSCNYVFPAHKCICYFPC; listed as Raphanus sativus)
- RELATIVE SPECIFIC ACTIVITY (%) IN MEDIUM SMF+: 100%
- RELATIVE SPECIFIC ACTIVITY (%) IN MEDIUM SMF−: 100%
- IC50 SMF+: 5.4
- IC50 SMF−: 4.1
- antifungal activity compared with yRs-AFP2, in words (Table 1 tests, SMF− and SMF+): maintain their antifungal activity
- effect of substitution on antifungal activity in SMF+, in words: increased antifungal activity
- effect of substitution on antifungal activity in SMF−, in words: little effect on the antifungal activity
- relative specific antifungal activity (1/IC50), FIG. 6, in words: enhanced activity

Substance: yRs-AFP2/H33A (QKLCQRPSGTWSGVCGNNNACKNQCIRLEKARAGSCNYVFPAHKCICYFPC; listed as Raphanus sativus)
- IC50 SMF+: >100
- IC50 SMF−: 32.0

Substance: yRs-AFP2/P7R: yeast-expressed Rs-AFP2 isoform, P7 replaced by arginine (QKLCQRRSGTWSGVCGNNNACKNQCIRLEKARHGSCNYVFPAHKCICYFPC; listed as Raphanus sativus)
- RELATIVE SPECIFIC ACTIVITY (%) IN MEDIUM SMF+: 84%
- RELATIVE SPECIFIC ACTIVITY (%) IN MEDIUM SMF−: 33%
- IC50 SMF+: 8.8
- IC50 SMF−: 6.8

Substance: yRs-AFP2/F40M (QKLCQRPSGTWSGVCGNNNACKNQCIRLEKARHGSCNYVMPAHKCICYFPC; listed as Raphanus sativus)
- RELATIVE SPECIFIC ACTIVITY (%) IN MEDIUM SMF+: 23%
- RELATIVE SPECIFIC ACTIVITY (%) IN MEDIUM SMF−: 30%
- IC50 SMF+: 54.0
- IC50 SMF−: 16.0

Substance: yRs-AFP2/I46R (QKLCQRPSGTWSGVCGNNNACKNQCIRLEKARHGSCNYVFPAHKCRCYFPC; listed as Raphanus sativus)
- RELATIVE SPECIFIC ACTIVITY (%) IN MEDIUM SMF−: 22%
- IC50 SMF+: >40
- IC50 SMF−: 12.0

Substance: yRs-AFP2/F49R (QKLCQRPSGTWSGVCGNNNACKNQCIRLEKARHGSCNYVFPAHKCICYRPC; listed as Raphanus sativus)
- RELATIVE SPECIFIC ACTIVITY (%) IN MEDIUM SMF+: 22%
- RELATIVE SPECIFIC ACTIVITY (%) IN MEDIUM SMF−: 18%
- IC50 SMF+: 23.0
- IC50 SMF−: 22.0

Substance: yRs-AFP2/K44Q (QKLCQRPSGTWSGVCGNNNACKNQCIRLEKARHGSCNYVFPAHQCICYFPC; listed as Raphanus sativus)
- RELATIVE SPECIFIC ACTIVITY (%) IN MEDIUM SMF+: 114%
- RELATIVE SPECIFIC ACTIVITY (%) IN MEDIUM SMF−: 100%

Substance: yRs-AFP2/G16M (QKLCQRPSGTWSGVCMNNNACKNQCIRLEKARHGSCNYVFPAHKCICYFPC; listed as Raphanus sativus)
- RELATIVE SPECIFIC ACTIVITY (%) IN MEDIUM SMF+: 114%
- RELATIVE SPECIFIC ACTIVITY (%) IN MEDIUM SMF−: 151%
- IC50 SMF+: 5.0
- IC50 SMF−: 2.2
- antifungal activity compared with yRs-AFP2 in high salt (SMF+), in words (Table 1 tests): not so significantly different in high salt
- antifungal activity compared with yRs-AFP2 in low salt (SMF−), in words (Table 1 tests): increased activity in low salt
- effect of substitution on antifungal activity in SMF+, in words: increased antifungal activity
- effect of substitution on antifungal activity in SMF−, in words: little effect on the antifungal activity
- relative specific antifungal activity (1/IC50), FIG. 6, in words: enhanced activity

Substance: yRs-AFP2/P7-: yeast-expressed Rs-AFP2 isoform with proline deletion at position 7 (QKLCQRSGTWSGVCGNNNACKNQCIRLEKARHGSCNYVFPAHKCICYFPC; listed as Raphanus sativus)
- RELATIVE SPECIFIC ACTIVITY (%) IN MEDIUM SMF+: 17%
- RELATIVE SPECIFIC ACTIVITY (%) IN MEDIUM SMF−: 8%

Substance: yRs-AFP2/T10G (QKLCQRPSGGWSGVCGNNNACKNQCIRLEKARHGSCNYVFPAHKCICYFPC; listed as Raphanus sativus)
- RELATIVE SPECIFIC ACTIVITY (%) IN MEDIUM SMF+: <16%
- RELATIVE SPECIFIC ACTIVITY (%) IN MEDIUM SMF−: 30%
- IC50 SMF+: >100
- IC50 SMF−: 11.0

Substance: yRs-AFP2/A31W (QKLCQRPSGTWSGVCGNNNACKNQCIRLEKWRHGSCNYVFPAHKCICYFPC; listed as Raphanus sativus)
- RELATIVE SPECIFIC ACTIVITY (%) IN MEDIUM SMF+: <5%
- RELATIVE SPECIFIC ACTIVITY (%) IN MEDIUM SMF−: 15%
- IC50 SMF+: >100
- IC50 SMF−: 30.0

Substance: yRs-AFP2/L28R (QKLCQRPSGTWSGVCGNNNACKNQCIRREKARHGSCNYVFPAHKCICYFPC; listed as Raphanus sativus)
- RELATIVE SPECIFIC ACTIVITY (%) IN MEDIUM SMF−: 39%
- IC50 SMF+: >100
- IC50 SMF−: 6.4

Substance: yRs-AFP2/Y38G (QKLCQRPSGTWSGVCGNNNACKNQCIRLEKARHGSCNGVFPAHKCICYFPC; listed as Raphanus sativus)
- RELATIVE SPECIFIC ACTIVITY (%) IN MEDIUM SMF+: <4%
- RELATIVE SPECIFIC ACTIVITY (%) IN MEDIUM SMF−: 30%
- IC50 SMF+: >200
- IC50 SMF−: 42.0

Substance: yRs-AFP2/A42R (QKLCQRPSGTWSGVCGNNNACKNQCIRLEKARHGSCNYVFPRHKCICYFPC; listed as Raphanus sativus)
- RELATIVE SPECIFIC ACTIVITY (%) IN MEDIUM SMF+: 26%
- RELATIVE SPECIFIC ACTIVITY (%) IN MEDIUM SMF−: 44%
- IC50 SMF+: 18.0
- IC50 SMF−: 4.2

Substance: yRs-AFP2/W11S (QKLCQRPSGTSSGVCGNNNACKNQCIRLEKARHGSCNYVFPAHKCICYFPC; listed as Raphanus sativus)
- IC50 SMF+: >100
- IC50 SMF−: 16.0
